Here are results for one compound from article doi:10.1101/2021.07.20.453049v1, “Integration of the cyanophage-encoded phosphate binding protein into the cyanobacterial phosphate uptake system” (biorxiv, 2021).

Test [1] concerns the target T1, Syn19 PstS (group II cyanophage PstS) (Synechococcus phage Syn19, UniProt E3SQC4).
T1 construct: recombinant, E. coli BL21(DE3), pET-22b, C-terminal His6 tag
The test is classed as binding. The note with it: crystallised with 5 mM sodium phosphate, pH 7.5; 18% PEG 3350, 0.2 M sodium formate.

Test [2] deals with T2, host PstS (Prochlorococcus NATL2A PstS) (Prochlorococcus marinus, UniProt Q46KP5).
T2 construct: gene PMN2A_0441
The note with it: 20 mM Tris-HCl, 200 mM NaCl, pH 7.5, room temperature, 24 h; trace 32P tracer with cold NaH2PO4.

In test [3] the target is phage PstS (cyanophage P-SSM2 PstS) (Prochlorococcus phage P-SSM2, UniProt Q58MA7). The experiment in a line: biochemical.

Molecules are shown by their SMILES.

Sequence of phage PstS (cyanophage P-SSM2 PstS) (Q58MA7 21-321): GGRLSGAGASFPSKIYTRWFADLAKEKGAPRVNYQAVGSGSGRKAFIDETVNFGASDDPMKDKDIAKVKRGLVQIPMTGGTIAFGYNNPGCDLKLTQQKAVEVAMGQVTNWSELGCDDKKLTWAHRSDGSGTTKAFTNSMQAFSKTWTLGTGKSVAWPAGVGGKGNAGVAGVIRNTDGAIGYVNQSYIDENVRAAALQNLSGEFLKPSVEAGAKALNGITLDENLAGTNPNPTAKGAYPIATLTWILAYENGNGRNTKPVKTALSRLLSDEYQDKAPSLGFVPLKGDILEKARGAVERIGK
T2 sequence (Q46KP5 25-323): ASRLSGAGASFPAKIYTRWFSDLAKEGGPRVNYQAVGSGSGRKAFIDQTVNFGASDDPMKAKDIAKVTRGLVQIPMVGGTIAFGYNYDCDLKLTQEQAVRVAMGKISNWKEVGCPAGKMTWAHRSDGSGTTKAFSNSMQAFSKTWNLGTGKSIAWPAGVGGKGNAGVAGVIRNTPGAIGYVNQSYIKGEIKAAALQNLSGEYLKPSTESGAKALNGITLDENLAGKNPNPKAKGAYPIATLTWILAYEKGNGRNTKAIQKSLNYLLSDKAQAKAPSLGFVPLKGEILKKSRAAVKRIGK
T1 sequence (E3SQC4 19-326): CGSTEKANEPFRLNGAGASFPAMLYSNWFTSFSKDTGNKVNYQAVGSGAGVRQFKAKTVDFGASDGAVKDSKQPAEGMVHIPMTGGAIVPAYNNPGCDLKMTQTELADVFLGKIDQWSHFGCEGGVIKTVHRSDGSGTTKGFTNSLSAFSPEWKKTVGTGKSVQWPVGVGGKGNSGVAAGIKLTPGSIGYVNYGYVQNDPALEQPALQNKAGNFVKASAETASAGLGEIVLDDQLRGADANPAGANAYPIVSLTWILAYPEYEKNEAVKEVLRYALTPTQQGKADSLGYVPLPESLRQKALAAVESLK

As for `O=P(O)(O)O` [phosphate], the “X-ray crystal structure, 1.70 Å” value in test [1] was “The PstS structure of cyanophage Syn19 in complex with PO4”. For the same compound, the Kd in test [2] is 820 ± 440 nM; in test [3], 1390 ± 220 nM.

As usually defined, the Kd is the concentration at which binding is half-saturated. A high value points to a looser complex.
